This note sets out measurements from a melting point compilation (Tetko et al.; mined from patent text by program, amines drawn as free bases though some values may be those of a salt).

The structures appear in SMILES notation. Bounds are passed on as bounds.

Turning to `CCC(=O)Nc1c(Cl)cnn1-c1ccc(Cl)c(Cl)c1Cl`, the melting point (commonly the temperature of the solid-liquid transition) came to 122 °C.
In turn, `CCN(C(C)=O)c1ccc2c(c1)Cc1c-2[nH]c2ccccc12` had a melting point of 232 °C.
In the case of `CSc1nc(I)ncc1Br` it was 72 to 76 °C; in that of `COC(=O)c1c(-c2ccc(C#N)cc2)cn(-c2ccc(Br)cc2)c1C(=O)OC`, 178 to 180 °C.
To `CNc1ccc2[nH]ncc2c1` belongs 144 to 146 °C.
To `COc1ccccc1S(=O)(=O)C(C)(Cc1ccc2ncccc2c1)C(=O)NO` (stereo unspecified) belongs 206 °C; to `CCNC(=O)N(CC)C(=O)Nc1ccn(Cc2ccccc2Cl)c(=O)c1NC(=O)N[C@@H](CC(=O)O)c1ccc(C)cc1`, 128 to 130 °C; to `CC(C)CC(=O)NCc1ccc(NC(=O)/C=C/c2cnn(C)c2-c2ccc(F)cc2)cc1`, 226 to 227 °C.
Regarding `O=C(O)CC(Br)c1ccc([N+](=O)[O-])cc1` (stereo unspecified), the melting point was 166 to 167 °C.
Turning to `CCCCCCCCCCCCN1C(=O)CC(c2cc(C(C)(C)C)c(O)c(C(C)(C)C)c2)C1=O` (stereo unspecified), the melting point fell in the range of 66 to 70 °C.
Consider `CNC1=NN(C(=O)C(C)(C)C)C(C)(C)S1`, for which the melting point is 162 to 164 °C.
To `O=C(Nc1ccc(Cl)c(Cl)c1)NS(=O)(=O)c1ccccc1` belongs 194 to 195 °C; to `C=CCN(CC=C)Cc1noc(-c2ncn3c2[C@@H]2CCN2C(=O)c2c(Cl)cccc2-3)n1`, 190 to 192 °C.
In the case of `O=C(/C=C/c1ccc(Br)cc1)Nc1ccccc1C(=O)O` it was 215 to 216 °C; in that of `COC(=O)c1c(N)ncn1C1c2ccccc2CCC1(C)C` (stereo unspecified), 193 to 195 °C; in that of `CC(NC(=O)CCBr)c1ccccc1` (stereo unspecified), 69 to 70 °C.
As to `COc1cc(OC)c(N2CCCC2)cc1/C=C/C(=O)c1ccc(S(=O)(=O)Nc2ccccn2)cc1`, the melting point is 124 to 128 °C.
In the case of `c1ccc2c(c1)[nH]c1cccc(OCC3CO3)c12` (stereo unspecified) it was 133 °C.
In the case of `Cc1nn(-c2c(Cl)cc(Cl)cc2Cl)c(N)c1C(=O)c1ccccc1Cl` it was 220 °C.
Molecule `CN(C)c1cccc(-c2ccc3nnn(Cc4ccc5ncccc5c4)c3n2)c1` yielded a melting point of 124 to 126 °C.
In the case of `O=C1NC(Cc2ccc(OCc3ccccc3)cn2)C(=O)NC1Cc1ccc(OCc2ccccc2)cc1` (stereo unspecified) it was 200 to 202 °C; in that of `COCOc1ccc(O)c(CC#N)c1`, 68 to 69 °C.
In turn, `O=c1oc(-c2ccc(NS(=O)(=O)c3ccccc3)cc2)cc(O)c1SCCc1ccccc1` had a melting point of 89 to 91 °C.
`O=C(O)CSc1c(Cl)cc2c(-c3ccccc3F)noc2c1Cl`: the melting point was found to be 165 °C.
`S=c1[nH]c2cccc(OCCNCc3cccc4ccccc34)c2[nH]1` registered a melting point of 191 to 193 °C.
`CN1C2CCC1CN(c1ccc(C#Cc3ccc(N)cc3)nn1)C2`: the melting point lay in the range of 204 to 210 °C.
To `CC1(c2cccnc2F)OC(=S)N(Nc2ccccc2)C1=O` (stereo unspecified) belongs 130 to 135 °C; to `C=CCCC(C#N)(C#N)Cc1ccc(OC(F)(F)C(F)F)cc1`, 60.5 °C; to `Cn1nc(CCc2cc(=O)[nH]c(N)n2)c2ccc(C(=O)NC[C@H](NS(=O)(=O)c3cccc4cnccc34)C(=O)O)cc21`, 122 to 125 °C.
Molecule `CC1(Cn2c(=O)n(-c3ccccc3)c3ccccc32)Cn2cc([N+](=O)[O-])nc2O1` (stereo unspecified) registered a melting point of 234 to 235 °C.
As to `c1ccc(CSc2nc3ccccn3n2)cc1`, the melting point lay in the range of 79 to 81 °C.
`CCOC(=O)c1cc(Br)cc2c(=O)c(OCCCN3CCN(Cc4ccc5ccccc5n4)CC3)c(-c3ccccc3)oc12` had a melting point of 125 to 126 °C.
Molecule `COc1ccc(N2C(=O)CN(C(C)C)C2=O)c(F)c1` came in with a melting point of 88 to 90 °C.
In the case of `CCc1[nH]n(C2CCCC2)c2nc(-c3ccc(-n4ccnc4)cc3)nc(=O)c1-2` it was > 300 °C; in that of `COCCOc1ccc(CCCOc2cc(CCC(=O)O)n(C)n2)c(OCc2ccc(Cl)cc2Cl)c1`, 128 to 130 °C.
For the molecule `CNC(=O)c1cn(-c2cc3c(=O)n(NS(C)(=O)=O)c(=O)[nH]c3cc2C(F)(F)F)cn1`, the melting point was in the range of 292 to 295 °C.
In turn, `COCCn1nc(-c2ccc(Cl)cc2)c2ccccc2c1=O` registered a melting point of 116 to 118 °C.
In the case of `C=C(C)C(=O)Nc1ccc(O)c(-n2nc3ccc(OC)cc3n2)c1` it was 199 to 201 °C; in that of `O=C(c1ccccc1)C(Br)(Br)Br`, 63 to 64 °C; in that of `Cc1ccc(S(=O)(=O)c2c(O)c3ccccc3n(C)c2=O)cc1`, 191 °C.
For `CCC1(CC)C(=O)N(CC(O)Cc2cc(C(C)C)c(O)c(C(C)C)c2)C(=O)N(CC(O)Cc2cc(C(C)C)c(O)c(C(C)C)c2)C1=O` (stereo unspecified), the melting point lay in the range of 126 to 127 °C.
On to `CC(=O)Oc1c(Cl)c(C)nc(C)c1-c1ccc(Oc2ccc(OC(F)(F)F)cc2)cc1`, for which the melting point is 78 to 80 °C.
For `O=C(O)c1ccccc1N1C(=O)C=CC1=O`, the melting point lay within 165 to 168 °C.
In the case of `CCn1c(=O)c2[nH]c(/C=C/c3cc(OC)c4c(c3)OCO4)nc2n(CC)c1=O` it was > 270 °C; in that of `CC(C)(c1ccc2ncccc2c1)n1nnc2ccc(-c3cnn(CCO)c3)nc21`, 95 to 98 °C.
Turning to `CS(=O)(=O)c1ccc(C2=C(c3ccccc3)C(=O)C2(Cl)Cl)cc1`, the melting point lay within 124 to 125 °C.
`CCOC(=O)c1cc(CC)sc1Nc1c([N+](=O)[O-])cccc1C(F)(F)F` gave a melting point of 72 to 73 °C.
`O=C1OCc2c1cc1ccc3c(c1c2-c1ccc(OC(F)(F)F)cc1)OCO3` had a melting point of 222 to 225 °C.
To `Cc1ccc2cccc(OCc3c(Cl)ccc([N+](=O)[O-])c3C#N)c2n1` belongs 212 to 215 °C.
To `CCC(=O)Nc1cc(-c2ccnc(Nc3cccc(Cl)c3)n2)ccn1` belongs 215 to 216 °C; to `CSc1ccc(-c2cc(=O)nc(N)o2)cc1`, 266 to 267 °C; to `CCCCNC(=O)NS(=O)(=O)c1cscc1C`, 126 to 131 °C.
Consider `O=C(CBr)c1cc(OCc2ccccc2)c(OCc2ccccc2)c(OCc2ccccc2)c1`, for which the melting point lay in the range of 112 to 113 °C.
For the molecule `COc1ccc(CN(CCN(C)CCCCCCN=C(NC#N)NCCSCc2csc(NC(=N)N)n2)c2ccccn2)cc1`, the melting point worked out at 52 °C.
In the case of `Cc1ccncc1CN1CCC(=C2c3ccc(Cl)cc3CCc3cccnc32)CC1`, the melting point lay in the range of 95.5 to 101 °C.
To `CNC(=O)c1cccc(F)c1Nc1nc(Nc2ccc3c(c2)CCCC(=O)N3CCOC)ncc1Cl` belongs 146 to 147 °C; to `Cc1nn(-c2cncc(F)c2)cc1I`, 87 to 88 °C.
As for `CCOc1ccc(OC(CCC(=O)O)C2(O)CN3CCC2CC3)cc1` (stereo unspecified), the melting point is 75 to 77 °C.
Molecule `S=C1Nc2ccccc2N2CCN(c3ccccc3)CCN12` had a melting point of 202 to 206 °C.
With `O=C(O)CN(C(=O)CCSC(=O)c1ccccc1)[C@H]1CC[C@H](c2ccccc2)CC1`, the melting point was in the range of 125 to 128 °C.
Turning to `O=c1oc(=Cc2ccccc2)c(=Cc2ccccc2)o1`, the melting point is 115 °C.
To `CCOC(=O)CN1CC2CCC(=O)N2C1=O` (stereo unspecified) belongs 99 to 101 °C.
`CCc1cc(C2(c3ccc(F)c(-c4cnccc4F)c3)N=C(N)N(C)C2=O)cc(CC)n1` (stereo unspecified) returned a melting point of 92 to 100 °C.
Turning to `Cc1sc(C(=O)OCc2ccccc2)cc1NC(=O)Cc1ccccc1`, the melting point is 173 to 174 °C.
Turning to `O=c1nc(-c2ccc(CO)cn2)sc2ccccc12`, the melting point lay within 247 to 248 °C.
The molecule `CSC(Oc1cc2cc(Br)cnc2cc1F)C(=O)NC(C)(C)C` (stereo unspecified) gave a melting point of 144 to 145 °C.
Consider `CC(C)(C)c1ccc(OP(Oc2ccc(C(C)(C)C)cc2C(C)(C)C)Oc2ccc(C(C)(C)C)cc2C(C)(C)C)c(C(C)(C)C)c1`, for which the melting point is 181 to 186 °C.
On to `CCCc1c(OCCCCC(=O)c2ccc3cc(OC)c(OC)cc3c2)ccc(C(=O)O)c1O`, for which the melting point lay in the range of 177 to 178 °C.
As for `CCCCN1CCC(n2c(=O)[nH]c3ccc(Br)cc32)CC1`, the melting point lay within 179 to 181 °C.
To `COc1cc2cc(CO)c(CO)c(-c3ccnc(C4C(=O)CCCC4=O)c3)c2cc1OC` belongs > 220 °C; to `O=C(O)C(=O)c1cn(Cc2ccccc2)c2ccc(Oc3ccc(C(F)(F)F)cc3Cl)cc12`, 152 to 154 °C; to `Clc1ccc(Nc2nc(-c3cccc(Br)n3)nc3ccccc23)cc1`, 242 to 248 °C.
In turn, `N=C(N)c1ccc2c(c1)N(CC(=O)c1ccc(Br)cc1)C(=O)CN2` came in with a melting point of 145 to 150 °C.
In the case of `CCOC(=O)C(=C(c1ccc(F)cc1)c1ccc(F)cc1)c1nnnn1C` it was 144 to 145 °C.
Consider `COc1ccc(C(=O)c2c(F)cccc2F)c(O)c1`, for which the melting point was 71 to 72 °C.
Turning to `Clc1nc2ccccc2n2cnc(-c3nc(C4CC4)no3)c12`, the melting point was 166 to 168 °C.
To `NS(=O)(=O)c1ccc(CNC(=O)c2ccccc2SSc2ccccc2C(=O)NCc2ccc(S(N)(=O)=O)cc2)cc1` belongs 267 to 269 °C; to `COc1cc([N+](=O)[O-])ccc1OCC(=O)C1CC1`, 112 to 113 °C; to `O=[N+]([O-])c1cc2oc(-c3ccccc3)nc2cc1N1CCOCC1`, 134 to 135 °C.
In the case of `c1ccc(CCC2CCN(Cc3n[nH]c4ccccc34)CC2)cc1` it was 153 to 155 °C.
`COc1cccc(OCCCN2CCC(C(O)(c3ccc(F)cc3)c3ccc(F)cc3)CC2)c1` gave a melting point of 107 to 108 °C.
With `COc1cc2c(=O)n(CCN3CCCC3)c3c4cc5c(cc4nnc3c2cc1OC)OCO5`, the melting point was 229 °C.
Consider `CC(C)(C)OC(=O)NCCNC(=O)C1CCN(C(=O)OC(C)(C)C)CC1`, for which the melting point lay in the range of 172 to 174 °C.
The molecule `CC12C=CCC1C1CCC3CCCCC3C1CC2` (stereo unspecified) gave a melting point of 165 to 166 °C.
In turn, `COc1ccc(CCCN(Cc2ccccc2)C[C@@H](O)c2ccc(OCc3ccccc3)c(OCc3ccccc3)c2)cc1` displayed a melting point of 59 to 62 °C.
With `CC(=O)CC(=O)c1ccc(OCCCN2CCCCC2)cc1`, the melting point was in the range of 43 to 45.5 °C.
